# Test results as given in US12391679B2, “Benzamide-substituted bicyclic imidazo- and pyrazolo-fused -pyridine, -pyrimide, and -pyridazine compounds for treatment of inflammatory diseases” (ONCO3R Therapeutics BV, priority 2019, dated 2025).
# Tests used:
# SIK1 = biological target: T1, SIK1 (Homo sapiens, UniProt P57059); assay: 33P radioactive kinase assay, SIK1; assay type: biochemical
# T1 construct: purchased Carna Biosciences 02-131
# Method in brief: (§1)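 SIK1, SIK2 or SIK3 phosphorylation of AMARA peptide with [33P]-γ-ATP plus unlabeled ATP. 10-point 1/5 dilution series, 1% DMSO final; reactions stopped with phosphoric acid, filter-harvested and scintillation-counted. Percentage inhibition and average IC50 derived from dose-response curves.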
# SIK2 = biological target: T2, SIK2 (Homo sapiens, UniProt Q9H0K1); assay: 33P radioactive kinase assay, SIK2; assay type: biochemical; note: AMARA 5 µM, 10 µM ATP
# T2 construct: purchased ThermoFisher Scientific PV4792
# T2 sequence (Q9H0K1 whole entry): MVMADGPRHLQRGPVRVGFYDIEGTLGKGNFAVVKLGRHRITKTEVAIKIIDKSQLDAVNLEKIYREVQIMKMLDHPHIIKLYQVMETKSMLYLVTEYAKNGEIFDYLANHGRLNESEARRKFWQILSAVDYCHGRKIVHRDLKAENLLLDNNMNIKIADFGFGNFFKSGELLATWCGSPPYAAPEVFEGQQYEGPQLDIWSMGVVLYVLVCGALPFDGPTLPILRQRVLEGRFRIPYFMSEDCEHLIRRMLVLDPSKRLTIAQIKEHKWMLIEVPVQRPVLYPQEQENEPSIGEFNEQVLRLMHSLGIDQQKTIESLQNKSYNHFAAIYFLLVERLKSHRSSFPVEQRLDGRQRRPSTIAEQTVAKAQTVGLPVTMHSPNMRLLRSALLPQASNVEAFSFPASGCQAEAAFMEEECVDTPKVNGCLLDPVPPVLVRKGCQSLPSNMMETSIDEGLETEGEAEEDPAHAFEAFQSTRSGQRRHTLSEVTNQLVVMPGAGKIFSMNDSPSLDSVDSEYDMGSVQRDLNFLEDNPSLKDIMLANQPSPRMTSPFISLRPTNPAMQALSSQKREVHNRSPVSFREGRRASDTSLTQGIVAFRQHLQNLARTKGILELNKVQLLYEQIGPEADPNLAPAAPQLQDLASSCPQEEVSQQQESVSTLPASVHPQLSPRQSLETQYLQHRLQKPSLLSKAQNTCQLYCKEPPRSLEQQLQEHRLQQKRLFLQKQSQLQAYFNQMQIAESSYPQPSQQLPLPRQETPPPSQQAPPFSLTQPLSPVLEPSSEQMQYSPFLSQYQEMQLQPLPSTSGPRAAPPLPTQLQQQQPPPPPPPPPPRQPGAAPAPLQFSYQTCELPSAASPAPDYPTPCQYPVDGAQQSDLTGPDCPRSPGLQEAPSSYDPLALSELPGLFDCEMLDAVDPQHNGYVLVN
# Method in brief: as §1
# SIK3 = biological target: T3, SIK3 (Homo sapiens, UniProt Q9Y2K2); assay: 33P radioactive kinase assay, SIK3; assay type: biochemical; conditions: 33P radioactive assay; AMARA 7 μM; 15 μM ATP; 80 min; average IC50
# T3 construct: purchased SignalChem S12-11G-100
# T3 sequence (Q9Y2K2 59-365 limits assumed): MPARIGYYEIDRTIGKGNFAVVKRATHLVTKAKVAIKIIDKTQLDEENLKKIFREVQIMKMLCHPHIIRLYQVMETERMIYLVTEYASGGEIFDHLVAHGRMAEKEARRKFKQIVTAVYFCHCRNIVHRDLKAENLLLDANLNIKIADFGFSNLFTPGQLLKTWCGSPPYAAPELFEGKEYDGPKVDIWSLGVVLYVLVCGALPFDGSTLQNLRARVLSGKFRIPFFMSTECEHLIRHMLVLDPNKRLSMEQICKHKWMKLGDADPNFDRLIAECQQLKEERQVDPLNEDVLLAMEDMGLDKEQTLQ
# Method in brief: as §1
# [1] = test system: Balb/c mice, IL-23 injected ear; assay: Murine model of psoriatic-like epidermal hyperplasia induced by intradermal injections of IL-23; assay type: in vivo; conditions: mouse, intradermal IL-23
# Description: Mouse recombinant IL-23, carrier free (Cat #14-8231) is provided by e-Bioscience (Frankfurt, Germany).
# Balb/c mice (female, 18-20 g body weight) were obtained from Janvier Labs (Le Genest-Saint-Isle, France). Mice are kept on a 12 h light/dark cycle. Temperature was maintained at 22° C., food and water are provided ad libitum.
# The design of the study was adapted from Rizzo H L. et al. (Rizzo et al. 2011).
# On the first day (D1), the mice were shaved around the two ears. For 4 consecutive days (D1 to D4), the mice received a daily intradermal dose of mouse recombinant IL-23 (1 μg/20 μL in PBS/0.1% BSA) in the right pinna ear and 20 μL of PBS/0.1% BSA in the left pinna ear under anesthesia.
# From D1 to D5, mice were dosed with test-compound or with vehicle, 1 h prior IL-23 injection.
# The thickness of both ears was measured daily with an automatic caliper. Body weight was assessed at initiation and at sacrifice. On fifth day, 2 h after the last dosing, the mice were sacrificed. The pinnae of the ear were cut, excluding cartilage. The pinnae, placed in a vial containing 1 mL of RNAlater® solution.
# There were 8 mice per group. The results were expressed as mean±SEM and statistical analysis was performed using one-way ANOVA followed by Dunnett's post-hoc test versus IL-23 vehicle groups.
# B10.RIII mice, IL-23 EEV = assay: Murine model of psoriatic arthritis induced by overexpression of IL-23; assay type: in vivo; conditions: mouse, IL-23 overexpression
# Excerpt: Mouse IL-23 enhanced episomal expression vector (EEV) was obtained from System Biosciences (Cat #EEV651A-1). Mouse IL-23 Quantikine ELISA Kits were obtained from R&D Systems (Cat #M2300). ProSense® 680 and OsteoSense® 750EX were obtained from PerkinElmer (Cat #NEV10003 and NEV10053EX). RNAlater® was obtained from Ambion (Cat #AM7021). Imalgene® 1000 (Merial) and Rompun® 2% (Bayer) were obtained from Centravet (Cat #IMA004-6827812 and ROM001-6835444).
# B10.RIII mice (male, 8-week old) were obtained from Charles River (Écully, France). Mice were kept on a 12 h light/dark cycle. Temperature was maintained at 22±2° C., food and water were provided ad libitum.
# The design of the study is adapted from Sherlock J P. et al. (Sherlock et al. 2012).
# On the first day (D1), the mice underwent a hydrodynamic injection of Ringer or IL-23 EEV in Ringer into the tail vein.
# As of D5, twice a week, the mice were scored for clinical symptoms until the end of the experiment.
# On D5, blood was collected by puncture in the submandibular vein to assess the serum IL-23 concentration.
# On D9, mice from all groups received ProSense® 680 probe (0.8 nmol/10 g, i.p.). On D10, the mice were anesthetized. Granulocyte infiltration was then measured using in vivo molecular imaging (Bruker In-Vivo Xtreme imaging system).
# On D11, randomization was performed according to ProSense® 680 molecular imaging and scoring.
# As of D12, mice were dosed with test compound or with vehicle.
# On D36, mice from all groups were sacrificed 2 h after last administration of compound.
# Twice weekly, clinical signs of inflammation were scored: 0 for normal paw; 1 if swelling of one digit; 2 if swelling of two or more digits; 3 if swelling of the entire paw. The scores of all limbs were summed up to produce a global score.
# There were 10 mice per group. The results are expressed as mean±SEM and statistical analysis is performed using one-way ANOVA followed by Dunnett's post-hoc test versus diseased vehicle group for scoring and imaging analysis, versus sham vehicle group for body weight.
# T1 sequence (P57059 whole entry): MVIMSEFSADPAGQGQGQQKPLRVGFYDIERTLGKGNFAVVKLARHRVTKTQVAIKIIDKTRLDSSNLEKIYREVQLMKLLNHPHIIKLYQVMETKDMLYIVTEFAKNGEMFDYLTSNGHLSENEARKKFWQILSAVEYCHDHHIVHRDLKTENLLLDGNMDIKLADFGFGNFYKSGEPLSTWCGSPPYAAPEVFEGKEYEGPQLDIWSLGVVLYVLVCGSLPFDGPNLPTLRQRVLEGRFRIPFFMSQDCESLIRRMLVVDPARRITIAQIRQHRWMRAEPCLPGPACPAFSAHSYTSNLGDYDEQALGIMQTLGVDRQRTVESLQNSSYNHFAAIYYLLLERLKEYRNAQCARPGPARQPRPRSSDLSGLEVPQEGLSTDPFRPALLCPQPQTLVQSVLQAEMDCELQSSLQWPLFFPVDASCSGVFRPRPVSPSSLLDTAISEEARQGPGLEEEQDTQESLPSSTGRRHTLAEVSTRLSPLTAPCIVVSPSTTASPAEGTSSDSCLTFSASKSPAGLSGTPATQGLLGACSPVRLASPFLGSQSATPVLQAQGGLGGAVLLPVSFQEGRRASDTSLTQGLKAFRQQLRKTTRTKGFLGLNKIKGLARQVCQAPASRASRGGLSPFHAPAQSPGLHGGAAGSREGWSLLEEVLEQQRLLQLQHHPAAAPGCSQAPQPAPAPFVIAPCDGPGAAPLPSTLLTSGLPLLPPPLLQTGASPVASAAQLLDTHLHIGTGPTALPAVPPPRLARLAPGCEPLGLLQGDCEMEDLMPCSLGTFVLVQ
IC50 (SIK1) [nM],IC50 (SIK2) [nM],IC50 (SIK3) [nM],Structure (SMILES),further results
> 500,> 500,10 to 100,"CCC(C)(C#N)c1ccn2c(-c3cc(OC)c(C(=O)NC4CC4)c(OC(F)F)c3)cnc2c1 (stereo not shown) [Cpd 27, 4-[7-(1-cyano-1-methyl-propyl)imidazo[1,2-a]pyridin-3-yl]-N-cyclopropyl-2-(difluoromethoxy)-6-methoxy-benzamide]",–
> 500,> 500,10 to 100,"COc1cc(-c2cnc3cc(C(C)(C)C#N)ccn23)cc(OC)c1C(=O)NC1CC1 [Cpd 28, 4-[7-(1-cyano-1-methyl-ethyl)imidazo[1,2-a]pyridin-3-yl]-N-cyclopropyl-2,6-dimethoxy-benzamide]",–
100 to 500,10 to 100,0.01 to 10,"COc1cc(-c2cnc3cc(C4(C#N)CC4)ccn23)cc(OC(F)F)c1C(=O)NC1CC1 [Cpd 33, 4-[7-(1-cyanocyclopropyl)imidazo[1,2-a]pyridin-3-yl]-N-cyclopropyl-2-(difluoromethoxy)-6-methoxy-benzamide]",–
–,–,–,"COc1cc(-c2cnc3cc(C4(C#N)COC4)ccn23)cc(OC(F)F)c1C(=O)NC1CC1 [Cpd 117, 4-[7-(3-cyanooxetan-3-yl)imidazo[1,2-a]pyridin-3-yl]-N-cyclopropyl-2-(difluoromethoxy)-6-methoxy-benzamide]",ear thickness compared to IL-23 vehicle group ([1]; 30 mg/kg p.o. b.i.d.): statistically significant decrease
–,–,–,"COc1cc(-c2cnc3cc(C4COC4)ccn23)cc(OC(F)F)c1C(=O)NC1CC1 [Cpd 174, N-cyclopropyl-2-(difluoromethoxy)-6-methoxy-4-[7-(oxetan-3-yl)imidazo[1,2-a]pyridin-3-yl]benzamide]","ear thickness compared to IL-23 vehicle group ([1]; 3 mg/kg p.o. b.i.d.): statistically significant decrease; clinical score compared to diseased vehicle group (B10.RIII mice, IL-23 EEV; 30 mg/kg p.o. b.i.d.): statistically significant decrease"
–,–,–,"COc1cc(-c2cnn3cc(C(C)(C)C#N)ccc23)cc(OC(F)F)c1C(=O)N[C@@H]1C[C@@H]1F [Cpd 219, 4-[6-(1-cyano-1-methyl-ethyl)pyrazolo[1,5-a]pyridin-3-yl]-2-(difluoromethoxy)-N-[(1R,2S)-2-fluorocyclopropyl]-6-methoxy-benzamide]","clinical score compared to diseased vehicle group (B10.RIII mice, IL-23 EEV; 3 mg/kg p.o. b.i.d.): statistically significant decrease"
–,–,–,"COc1cc(-c2cnn3cc(C4(N)CCC4)ccc23)cc(OC(F)F)c1C(=O)N[C@@H]1C[C@@H]1F [Cpd 261, 4-[6-(1-aminocyclobutyl)pyrazolo[1,5-a]pyridin-3-yl]-2-(difluoromethoxy)-N-[(1R,2S)-2-fluorocyclopropyl]-6-methoxy-benzamide]","clinical score compared to diseased vehicle group (B10.RIII mice, IL-23 EEV; 50 mg/kg p.o. b.i.d.): statistically significant decrease"

Structure (SMILES),IC50 (SIK1) [nM],IC50 (SIK2) [nM],IC50 (SIK3) [nM],further results
"COc1cc(-c2cnc3cc(C(C)(C)C#N)ccn23)cc(OC(F)F)c1C(=O)NC1CC1 [Cpd 19, 4-[7-(1-cyano-1-methyl-ethyl)imidazo[1,2-a]pyridin-3-yl]-N-cyclopropyl-2-(difluoromethoxy)-6-methoxy-benzamide]",> 500,> 500,0.01 to 10,"ear thickness compared to IL-23 vehicle group ([1]; 10 mg/kg p.o. b.i.d.): statistically significant decrease; clinical score compared to diseased vehicle group (B10.RIII mice, IL-23 EEV; 10 mg/kg p.o. b.i.d.): statistically significant decrease"
